From ChEMBL document CHEMBL3120137, “Substituted benzene sulfonamides incorporating 1,3,5-triazinyl moieties potently inhibit human carbonic anhydrases II, IX and XII” (Bioorg Med Chem Lett, 2014) come the findings set out here.

The structures appear in SMILES notation.

This assay concerns the target Carbonic anhydrase 9 (Homo sapiens, UniProt Q16790). As to the kind of experiment: Inhibition of human transmembrane carbonic anhydrase 9 preincubated for 15 mins by stopped flow CO2 hydration assay.
Turning to `NS(=O)(=O)c1ccc(Nc2nc(N3CCOCC3)nc(N3CCOCC3)n2)cc1`, the Ki is 34.1 nM.
As for `CN(CCO)c1nc(Nc2ccc(S(N)(=O)=O)cc2)nc(N(C)CCO)n1`, the figure is 5.9 nM.
Take `Nc1nc(N)nc(Nc2ccc(S(N)(=O)=O)cc2)n1`: the Ki is 2.4 nM.
For `NS(=O)(=O)c1ccc(Nc2nc(Cl)nc(Nc3ccccc3)n2)cc1` the value was 5.9 nM.
`Cc1cccc(Nc2nc(Nc3ccc(S(N)(=O)=O)cc3)nc(N3CCOCC3)n2)c1`: the affinity corresponds to a Ki of 10.2 nM.
With `CC(C)(C)Nc1nc(Nc2ccc(S(N)(=O)=O)cc2)nc(NC(C)(C)C)n1`, the Ki was determined as 19.3 nM.
With `COc1ccc(Nc2ccc(S(N)(=O)=O)cc2)nn1`, the Ki was determined as 8.5 nM.
For the compound `CN(CCO)c1nc(Cl)nc(Nc2ccc(S(N)(=O)=O)cc2)n1`, affinity was put at a Ki of 1.2 nM.
As to `Nc1cccnc1Nc1ccc(S(N)(=O)=O)cc1`, the Ki was 10.7 nM.
Turning to `NCCCNc1nc(Cl)nc(Nc2ccc(S(N)(=O)=O)cc2)n1`, the Ki is 21.4 nM.
As for `NS(=O)(=O)c1ccc(Nc2nc(Cl)nc(Nc3ccc(F)c(Cl)c3)n2)cc1`, the affinity corresponds to a Ki of 21.2 nM. This Ki and that of the compound before are within 1.5-fold of each other.
As for `NCCCNc1nc(NCCCN)nc(Nc2ccc(S(N)(=O)=O)cc2)n1`, the figure is 18.3 nM.
